According to patent publication US20260199384A1, “METHOD AND COMPOSITIONS FOR TREATING SKIN DISORDERS” (PHOENIX ANIMAL WELLNESS, INC., priority 2023, published 2026):

How the values were obtained:
[1] = tested on: Primary canine dermal fibroblasts; assay: Cytokine assay in primary dermal fibroblast cultures (Example 26); format: cell-based
[2] = tested on: murine CD4+ and CD8+ T cells; settings: not IFN-γ-producing cells; cited from earlier work
JAK kinases = settings: range over JAK kinases; read-out: IC50, inhibition of JAK kinases; cited from earlier work
[3] = tested on: canine DH82 macrophage cell line; assay: Cytokine assay in DH82 macrophage cultures (Example 26); format: cell-based
[4] = tested on: erythropoietin, granulocyte/macrophage colony-stimulating factor, IL-12, IL-23; settings: GM-CSF, read-out: IC50's, cytokines that do not activate the JAK1 enzyme in cells; cited from earlier work
T cell proliferation = settings: published data; cited from earlier work
[5] = tested on: JAK1-dependent cytokines involved in allergy and inflammation (IL-2, IL-4, IL-6, and IL-13) as well as pruritus (IL-31); settings: published data; cited from earlier work
[6] = tested on: Natural Killer (NK) cells and monocytes; assay: Immune cell activation in PBMC cultures (CD69, CD25; Example 13); format: cell-based, human
Experimental: Immune cell activation. Peripheral venous blood was drawn from healthy human donors upon written informed consent, as approval by the Sky Lakes Medical Center Institutional Review Board, Federalwide Assurance 2603. The blood was drawn into heparin vacutainer vials, and the peripheral blood mononuclear cells (PBMC) were isolated using Lympholyte Poly by centrifugation for 35 min at 400×g. The PBMC were washed twice in PBS and counted, and the density was adjusted to establish 0.18 mL cultures with a cell density at 106/mL, using Roswell Park Memorial Institute 1640 medium containing 10% fetal calf serum and 1% penicillin-streptomycin.
Cultures were then incubated at 37° C., 5% CO2 for 24 h. The highly inflammatory LPS from Escherichia coli was used as a positive control for immune-cell activation. In parallel, IL-2 was used as a positive control for natural killer (NK)-cell activation, at a concentration of 100 IU/mL in cell culture. Untreated negative control cultures consisted of PBMC exposed to phosphate-buffered saline in the absence of test products. […] The fluorescence intensities for CD3, CD25, CD56, and CD69 were measured by flow cytometry, using an Attune NxT acoustic-focusing flow cytometer (Thermo Fisher Scientific, Waltham, MA, USA). […] The lymphocyte subpopulation was further analyzed for CD25 and CD69 expression on CD3−CD56+ NK cells, CD3+ CD56+ NKT cells, and CD3+CD56− T cells.

[7] = tested on: dogs suffering from pruritus or atopic dermatitis; assay: Treatment of pruritus / atopic dermatitis in dogs (Examples 14, 15, 28); format: in vivo, dog; settings: oral, 1-2 times daily, 2-6 or 3-5 microg oleandrin/Kg
Experimental: (§1) A dog presenting with pruritus was administered the aqueous liquid composition of Example 2. It contained 0.1-5 μg OLE/mL. The composition (0.25-1 mL) was administered (1-4 times daily) directly to the dog's mouth, thereby resulting in a combination of buccal and sublingual administration. […] Both inflammation and itchiness were relieved.
as §1, with “the MCT-based” for “the aqueous liquid”, “Example 21.” for “Example 2.”, “contained 12-25” for “contained 0.1-5”, “OLE/mL. A few drops of the” for “OLE/mL. The”, “mL) is” for “mL) was”
A dog presenting with pruritus was administered the aqueous liquid composition of Example 11. The composition was sprayed (1-4 pumps) directly onto the itchy area of the dog and rubbed into the skin and fur/hair. […] Both inflammation and itchiness were relieved.
Oleandrin (oleander extract) was orally administered in two different forms. The oil-based formulation of Example 21 was sprayed onto dog treats and administered between meals or sprayed onto dog food and administered as part of a meal. The chews of Example 27 were orally administered between meals. Both products were administered 1-2 times daily at doses ranging from 2-6 (preferably 3-5) microg oleandrin/Kg of bodyweight. […]

[8] = tested on: BT (Bos taurus turbinate), MDBK (Bos taurus kidney) and MARC 145 (monkey kidney) cells; assay: Lactate dehydrogenase release assay (LDH assay), Example 18; format: cell-based; settings: up to concentrations of 1 microg/mL
Experimental: Oleandrin (PhytoLab, Vestenbergsgreuth, Germany) was dissolved at a concentration of 1 mg/ml in DMSO. The desired concentration range to be used in cytotoxicity testing is 0.005-1 ug/ml in 0.0005-0.1% wt in DMSO, respectively. Lactate dehydrogenase release assay (LDH assay) was be used to determine the cytotoxic effect of different concentration of Oleandrin on different cell cultures. LDH is a cytosolic enzyme that is released only from damaged cells (due to increased membrane permeability) to the outside medium that will convert the lactate in the medium into pyruvate in a coupled reaction that includes the reduction of NAD+ into NADH, the latter is oxidized back to NAD+ in the presence of Diaphorase in the LDH kit mix that leads to the reduction of water soluble tetrazolium (INT), that is also in the kit mix, into red Formazon product that can be read by an ELISA reader at a wave length of 490 nm. […]
This was achieved by preparing different concentration of cells in 100 μl volume staring at 1000 cell/100 μl to 20,000 cell/100 μl in a 2-fold serial dilution manner. […] After performing the test according to the manufacturer instructions, the average OD value reading of the triplicate for each dilution in each set was taken and plotted against number of cells. […] Absorbance is measured at 490 nm and 680 nm using Spectramax i3x. […]

[9] = tested on: K562 human myelogenous leukemia target cells; assay: Cytotoxicity towards K562 target cells (CD107a; Example 13); format: cell-based; settings: PBMC co-cultured with K562
Source text: Natural killer (NK) cell cytotoxicity towards K562 human myelogenous leukemia target cells. The cell surface expression of CD107a (LAMP-1) is a marker for secretory degranulation of NK and activated cytotoxic T cells when they are co-cultured with malignant or virus-infected target cells. Peripheral blood mononuclear cells from healthy human donors were co-cultured with K562 cells in the absence versus presence of test products or matching concentrations of the DMSO solvent control. All treatments, including each concentration of test product and each positive and negative control, were tested in triplicate. CD107a-FITC antibody (6.5 μL/well) was added at the beginning of each culture, along with the protein transport inhibitor BD GolgiStop™, which contains Monensin and blocks intracellular protein transport processes. After 4 h of incubation at 37° C., 5% CO2, the cells were washed in phosphate-buffered saline and stained with CD3-PerCP and CD56-PE antibodies and then fixed in formalin. Flow cytometry analysis was performed where the strategy involved initial gating of the lymphocyte and monocyte subpopulations using the forward/side scatter plot, followed by analysis of T cells and NK cells in the lymphocyte population. The fluorescence intensity of CD107a was evaluated as the mean fluorescence intensity on monocytes, NK cells, and T cells.

[10] = tested on: human peripheral blood mononuclear cells; assay: Cytokine, chemokine and growth factor production in human PBMC cultures (Example 13); format: cell-based
Source text: Proof of the antipruritic activity of oleandrin was established in vitro according to Example 13 by measuring its effect upon on the expression of key cytokines, chemokines, and other factors that are part of the innate immune system. An in vitro model of human peripheral blood mononuclear cells was used to determine effects the effects of OCC under different culture conditions: normal (no inflammation) and inflamed by lipopolysaccharide (LPS).
Reagents. Dulbecco's phosphate-buffered saline (Gibco cat. #141190-136), lipopolysaccharide (LPS) (Invitrogen cat. #00-4976-93), Roswell Park Memorial Institute 1640 cell culture medium (Gibco cat. #11835-030), Fetal Bovine Serum (Gibco cat. #A38401-01), penicillin-streptomycin 100× (Gibco cat. #15140-122), CD69 fluorescein isothiocyanate (clone FN50, Invitrogen cat. #11-0699-42), CD56 phycoerythrin (clone CMSSB Invitrogen cat. #12-0567-42), and CD3 Super Bright 645 (clone OKT3 Invitrogen cat. #64-0037-42) were purchased from Thermo Fisher Scientific (Waltham, MA, USA). CD25 Brilliant Violet 421 (clone 2A3 BD cat. #564033) and sodium heparin Vacutainer tubes (BD cat. #367878) were purchased from Becton-Dickinson (Franklin Lakes, NJ, USA). The human erythroleukemia cell line K562 was purchased from American Type Culture Collection (Manassas, VA, USA). Customized Bio-Plex Pro™ human cytokine arrays were purchased from Bio-Rad Laboratories Inc. (Hercules, CA, USA). […]
The two products were handled in the following manner: (1) A stock solution of PBI was prepared in DMSO, and subsequent dilutions were prepared in phosphate-buffered saline. […] The range of concentrations in cell cultures was calculated based on the % oleandrin and ranged from 0.5 to 500 ng oleandrin/mL cell culture medium. […]
Immune cell activation. […] The PBMC were washed twice in PBS and counted, and the density was adjusted to establish 0.18 mL cultures with a cell density at 106/mL, using Roswell Park Memorial Institute 1640 medium containing 10% fetal calf serum and 1% penicillin-streptomycin. […]

| SMILES | levels of IL-8 and MCP-1 [1] | frequency of IL-4- and IL-10-producing murine CD4+ and CD8+ T cells [2] | IC50 (JAK kinases) | IL-6, IFN-γ, and NGF-β ([3]; cytokines involved in dermal inflammation) | TGF-β1, IL12/IL-23p40, and TNF-α ([3]; less robust than the reductions triggered by OE and oleandrin) | IC50 [4] | concentration at which inhibition of T cell proliferation was seen (T cell proliferation) | concentrations at which anti-inflammatory properties have been reported [5] | activation of Natural Killer (NK) cells and monocytes [6] | IL-6, IL-12/IL-23p40, IFN-γ, TNF-α, VEGF, and NGF-β ([3]; DH82 macrophage cultures, inflamed conditions (LPS), 24 hours) | time until improvements became evident [7] | itching and scratching ([7]; as included in an oleander extract) | toxicity, release of lactate dehydrogenase [8] | T cell cytotoxic attack on malignant target cells [9] | production of cytokines [10] | expression of IFN-γ, G-CSF, and IL-6 ([10]; 0.5 to 500 ng oleandrin/mL) | formation/expression of IL-21, IL-22, IL-23, IL-25, IL-31, IL-33, and TNF-α ([10]; 0.5 to 500 ng oleandrin/mL) |
| --- | --- | --- | --- | --- | --- | --- | --- | --- | --- | --- | --- | --- | --- | --- | --- | --- | --- |
| CNS(=O)(=O)C[C@H]1CC[C@H](N(C)c2ncnc3[nH]ccc23)CC1 [oclacitinib] | little or no effect | reduces | 0.01 to 0.099 µM | increases | reductions | > 1 µM | 10 µM | 36 to 249 nM |  |  |  |  |  |  |  |  |  |
| CO[C@H]1C[C@H](O[C@H]2CC[C@@]3(C)[C@H](CC[C@@H]4[C@@H]3CC[C@]3(C)[C@@H](C5=CC(=O)OC5)[C@@H](OC(C)=O)C[C@]43O)C2)O[C@@H](C)[C@@H]1O [oleandrin] | reduced |  |  |  |  |  |  |  | directly activated | reductions | 1 to 3 days | significant reduction in itching and scratching | no additional toxicity over control vehicle | increased | increased | induced | suppressed |
